Measured values: EPA's ToxRefDB 2

Legend:
rat [1] = conditions: Prenatal developmental toxicity study; sprague dawley; Oral; Gavage/Intubation; dose end: 17 GD; group: maternal; systemic / in life observation / body weight / body weight gain + systemic / in life observation / clinical signs / fur (altered appearance…
rat [2] = conditions: Sub-acute repeat dose toxicity; sprague dawley; Oral; Gavage/Intubation; dose end: 28 day; group: systemic; systemic / in life observation / body weight / body weight gain + systemic / in life observation / food consumption / food consumption + …
rat [3] = conditions: Prenatal developmental toxicity study; sprague dawley; Oral; Gavage/Intubation; dose end: 17 GD; group: maternal; systemic / in life observation / body weight / body weight + systemic / in life observation / body weight / body weight gain + systemic / in…
rabbit = conditions: Prenatal developmental toxicity study, new zealand white, Oral, Gavage/Intubation, dose end: 19 GD
rat [4] = conditions: Fertility (Segment I), sprague dawley, Oral, Gavage/Intubation, dose end: 7 GD
primate [5] = conditions: Sub-acute repeat dose toxicity, macaque, Oral, Gavage/Intubation, dose end: 1 month, group: systemic
rat [6] = conditions: Chronic toxicity, sprague dawley, Oral, Gavage/Intubation, dose end: 6 month, group: systemic
dog = conditions: Sub-acute repeat dose toxicity, beagle, Oral, Capsule, dose end: 1 month, group: systemic
primate [7] = conditions: Chronic toxicity, macaque, Oral, Gavage/Intubation, dose end: 6 month, group: systemic
rat [8] = conditions: Sub-acute repeat dose toxicity; Oral; Gavage/Intubation; dose end: 4 day; group: systemic; systemic / in life observation / clinical signs / impaired reflex, nos
primate [9] = conditions: Sub-acute repeat dose toxicity; Oral; Gavage/Intubation; dose end: 5 day; group: systemic; systemic / in life observation / food consumption / food consumption + systemic / in life observation / clinical signs / emesis + systemic…
rat [10] = conditions: Sub-acute repeat dose toxicity, Oral, Gavage/Intubation, dose end: 7 day, group: systemic
rat [11] = conditions: Sub-acute repeat dose toxicity, Oral, Gavage/Intubation, dose end: 7 day, group: systemic; remark: listed apart in the source
rat [12] = conditions: Sub-acute repeat dose toxicity, Oral, Gavage/Intubation, dose end: 28 day, group: systemic
primate [13] = conditions: Sub-acute repeat dose toxicity; Oral; Gavage/Intubation; dose end: 5 day; group: systemic; systemic / clinical chemistry / aspartate aminotransferase (ast/sgot) / aspartate aminotransferase (ast/sgot) + systemic / clinical …
[14] = group: developmental, developmental / developmental malformation / eye / open eye
[15] = group: maternal, systemic / in life observation / body weight / body weight gain + systemic / in life observation / food consumption / food consumption + …
[16] = group: maternal, systemic / pathology gross / pancreas / irregular surface + systemic / pathology gross / pancreas / reduced size
[17] = group: maternal, reproductive / reproductive performance / estrous cycle / abnormal
[18] = group: parental, systemic / in life observation / body weight / body weight gain + systemic / in life observation / clinical signs / piloerection + systemic…
[19] = group: parental, systemic / in life observation / body weight / body weight gain + systemic / in life observation / food consumption / food consumption + …
[20] = systemic / in life observation / clinical signs / [other] + systemic / in life observation / clinical signs / defecation (diarrhea) + …
[21] = systemic / in life observation / food consumption / food consumption
[22] = systemic / clinical chemistry / [other] / [other] + systemic / clinical chemistry / phosphorus / phosphate + systemic / clinical chemistry…
[23] = systemic / clinical chemistry / [other] / [other] + systemic / clinical chemistry / phosphorus / phosphate + systemic / in life observation…
[24] = systemic / clinical chemistry / alanine aminotransferase (alt/sgpt) / alanine aminotransferase (alt/sgpt) + systemic / clinical chemistry / …
[25] = systemic / clinical chemistry / alanine aminotransferase (alt/sgpt) / alanine aminotransferase (alt/sgpt) + systemic / pathology microscopic…
[26] = systemic / clinical chemistry / alanine aminotransferase (alt/sgpt) / alanine aminotransferase (alt/sgpt)
[27] = systemic / hematology / blood clotting / blood clotting - prothrombin time + systemic / organ weight / heart / relative to body weight + …
[28] = systemic / hematology / blood clotting / blood clotting - prothrombin time + systemic / organ weight / liver / absolute + systemic / organ …
[29] = systemic / hematology / blood clotting / blood clotting - prothrombin time + systemic / hematology / lymphocyte / lymphocyte + systemic / in…
[30] = systemic / hematology / blood clotting / blood clotting - activated partial thromboplastin time + systemic / hematology / blood clotting / …
[31] = systemic / hematology / mean corpuscular hemoglobin (mch) / mean corpuscular hemoglobin (mch) + systemic / hematology / mean corpuscular …

SMILES: COc1cc(-c2nc(NC(=O)c3cc4cc(C)cc(C)c4n3CC(=O)O)sc2CCC2CCCCC2)c(OC)cc1Cl.O=C(O)C(F)(F)F
- LEL (rat [1]): 50 mg/kg/day
- LOAEL (rat [1]): > 1000 mg/kg/day
- NEL (rat [1]): < 50 mg/kg/day
- NOAEL (rat [1]): ≥ 1000 mg/kg/day
- LEL (rat [2]): 1 mg/kg/day
- LOAEL (rat [2]): > 30 mg/kg/day
- NEL (rat [2]): < 1 mg/kg/day
- NOAEL (rat [2]): ≥ 30 mg/kg/day
- LEL (rat [3]): 250 mg/kg/day
- LOAEL (rat [3]): > 500 mg/kg/day
- NEL (rat [3]): < 250 mg/kg/day
- NOAEL (rat [3]): ≥ 500 mg/kg/day
- LEL (rabbit; [14]): 10 mg/kg/day
- LOAEL (rabbit; [14]): 10 mg/kg/day
- NEL (rabbit; [14]): 3 mg/kg/day
- NOAEL (rabbit; [14]): 3 mg/kg/day
- LOAEL (rabbit; [15]): > 10 mg/kg/day
- NOAEL (rabbit; [15]): ≥ 10 mg/kg/day
- LEL (rabbit; [16]): 0.5 mg/kg/day
- NEL (rabbit; [16]): < 0.5 mg/kg/day
- LEL (rat [4]; [17]): 200 mg/kg/day
- LOAEL (rat [4]; [17]): > 1000 mg/kg/day
- NEL (rat [4]; [17]): 50 mg/kg/day
- NOAEL (rat [4]; [17]): ≥ 1000 mg/kg/day
- LOAEL (rat [4]; [18]): > 1000 mg/kg/day
- NOAEL (rat [4]; [18]): ≥ 1000 mg/kg/day
- LEL (rat [4]; [19]): 50 mg/kg/day
- NEL (rat [4]; [19]): < 50 mg/kg/day
- LOAEL (primate [5]; [20]): 5 mg/kg/day
- NOAEL (primate [5]; [20]): 1 mg/kg/day
- LEL (primate [5]; [21]): 1 mg/kg/day
- NEL (primate [5]; [21]): < 1 mg/kg/day
- LOAEL (rat [6]; [22]): > 250 mg/kg/day
- NOAEL (rat [6]; [22]): ≥ 250 mg/kg/day
- LEL (rat [6]; [23]): 1 mg/kg/day
- NEL (rat [6]; [23]): < 1 mg/kg/day
- LOAEL (dog; [24]): > 25 mg/kg/day
- NOAEL (dog; [24]): ≥ 25 mg/kg/day
- LEL (dog; [25]): 1 mg/kg/day
- NEL (dog; [25]): < 1 mg/kg/day
- LEL (primate [7]; [26]): 0.6 mg/kg/day
- NEL (primate [7]; [26]): < 0.6 mg/kg/day
- LOAEL (primate [7]; [25]): 3 mg/kg/day
- NOAEL (primate [7]; [25]): 0.6 mg/kg/day

SMILES: O=C(CO)N1CCC(c2[nH]nc(-c3ccc(Cl)cc3F)c2-c2ccncn2)CC1
- LEL (rat [8]): 50 mg/kg/day
- LOAEL (rat [8]): > 2000 mg/kg/day
- NEL (rat [8]): < 50 mg/kg/day
- NOAEL (rat [8]): ≥ 2000 mg/kg/day
- LEL (primate [9]): 600 mg/kg/day
- LOAEL (primate [9]): > 600 mg/kg/day
- NEL (primate [9]): < 600 mg/kg/day
- NOAEL (primate [9]): ≥ 600 mg/kg/day
- LOAEL (rat [10]; [27]): > 2000 mg/kg/day
- NOAEL (rat [10]; [27]): ≥ 2000 mg/kg/day
- LEL (rat [10]; [28]): 200 mg/kg/day
- NEL (rat [10]; [28]): < 200 mg/kg/day
- LOAEL (rat [11]; [29]): > 2000 mg/kg/day
- NOAEL (rat [11]; [29]): ≥ 2000 mg/kg/day
- LEL (rat [11]; [27]): 200 mg/kg/day
- NEL (rat [11]; [27]): < 200 mg/kg/day
- LOAEL (rat [12]; [30]): > 2000 mg/kg/day
- NOAEL (rat [12]; [30]): ≥ 2000 mg/kg/day
- LEL (rat [12]; [31]): 20 mg/kg/day
- NEL (rat [12]; [31]): < 20 mg/kg/day
- LEL (primate [13]): 600 mg/kg/day
- LOAEL (primate [13]): > 600 mg/kg/day
- NEL (primate [13]): < 600 mg/kg/day
- NOAEL (primate [13]): ≥ 600 mg/kg/day
